# Reference: patent publication US5942532A, “2-substituted phenyl-benzimidazole antibacterial agents” (Ortho Pharmaceutical Corporation, priority 1997, dated 1999)
# Target: T1, Kinase A and Spo0F (Bacillus subtilis, UniProt P16497)
# T1 construct: made in house; host or cells: recombinant E. coli
# T1 sequence (P16497 1-606): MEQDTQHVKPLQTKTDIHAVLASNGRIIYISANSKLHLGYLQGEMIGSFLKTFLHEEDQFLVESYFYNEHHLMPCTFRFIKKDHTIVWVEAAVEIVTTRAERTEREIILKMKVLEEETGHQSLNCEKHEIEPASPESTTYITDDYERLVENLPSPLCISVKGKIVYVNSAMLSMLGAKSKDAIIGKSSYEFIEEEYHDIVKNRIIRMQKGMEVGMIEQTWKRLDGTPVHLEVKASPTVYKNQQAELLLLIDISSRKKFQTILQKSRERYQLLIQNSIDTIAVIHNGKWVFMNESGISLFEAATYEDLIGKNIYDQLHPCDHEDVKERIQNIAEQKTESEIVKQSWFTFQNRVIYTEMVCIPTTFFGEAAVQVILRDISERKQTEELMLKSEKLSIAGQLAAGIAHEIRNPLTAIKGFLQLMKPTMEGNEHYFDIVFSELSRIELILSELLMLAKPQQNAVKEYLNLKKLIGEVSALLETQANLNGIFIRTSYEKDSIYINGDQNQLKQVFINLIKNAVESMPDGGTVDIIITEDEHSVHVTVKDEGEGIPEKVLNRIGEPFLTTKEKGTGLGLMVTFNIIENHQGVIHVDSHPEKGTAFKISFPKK
# Experiment: Autophosphorylation of Kinase A and Transphosphorylation of Spo0F Assay (HPK in vitro assay)
# Format: biochemical
# Settings: Table 1, KinA/Spo0F phosphorylation, in µM
# Description: Autophosphorylation of Kinase A and Transphosphorylation of Spo0F Assay
# To study the effect of the compounds of the present invention on the signal transduction process in bacteria, the inhibiting effect of the compounds on the sporulation operon proteins Kinase A and Spo0F was examined. Specifically, the inhibition of autophosphorylation of Kinase A and the transphosphorylation of Spo0F was determined in the following assays. The Spo0F response regulator is the primary substrate for phosphorylation by the protein kinase, Kin A, involved in the sporulation process in bacteria. See D. Burbulys, K. A. Trach, J. A. Hoch, Cell, 64, 545-552 (1991). Spo0F and KinA were prepared from recombinant E. coli overexpressing the proteins (J. Cavanagh et al, Amino Acids, 6, 131-140 (1994) and references therein).
# The following stock reagents were either prepared and used promptly or stored at the indicated temperature:
# 8×Salts: 2 M KCl (5 mL), 1 M MgCl2 (800 mL), 1 M CaCl2 (100 mL), 10 mg/mL phenylmethylsulfonyl fluoride (200 mL), 1 M dithioreitol (50 mL), 0.25 M Na2 EDTA (32 mL) and H2 O 3.82 mL (-20° C.)
# 5×Loading Dye: 0.5M TRIS-HCl, pH 6.8 (7.5 mL), 10% SDS (2 mL) 0.1% bromophenol blue (0.5 mL), 100% glycerol (3 mL) and 12.5 M 2-mercaptoethanol (0.3 mL)
# 1-1.3 mg/mL KinA: 15 mM TRIS-HCl, pH 8.0, 6 mM KCl; 4 mM 2-mercaptoethanol;40% glycerol (-20° C.)
# 1 mg/mL Spo0F: 17.5 mM TRIS-HCl, pH 8.0; 0.7 mM KCl; 0.7 mM MgCl2; 0.7 mM CaCl2; 5 mM 2-mercaptoethanol; 30% glycerol (-20° C.)
# 5% Stacking Gel: 40% 29:1 acrylamide:bis acrylamide (1.25 mL), 0.5 M TRIS-HCl, pH 6.8 (2.5 mL), 10% SDS (0.1 mL), D-H2 O (6.15 mL) 10% ammonium persulfate (100 mL) and TEMED (25 mL)
# SDS Running Buffer: TRIS-BASE (3.02 g), glycine (14.4 g), SDS (1 g), D-H2 O (to 1 L)
# The reaction mixture was prepared from 8×Salts (87 μL), 1M TRIS, pH 8 (118 μL), 50% glycerol (63 μL), Spo0F (14.1 μL) and KinA (7.0 μL). Microcentrifuge tubes were charged with the reaction mixture (18.5 μL) and a 1.0 mM solution of the test compound in 5% DMSO (18.5 μL), and incubated for 15 min on ice. 100 mM ATP solution (3.0 μl, containing 625 μCi [^32 P]ATP) was added, and the mixture left for 10 minutes at room temperature. The reaction was quenched with 5× loading dye (10 μL per tube) and the samples were loaded on a prepared 5% Stacking Gel, or stored on dry ice until ready for use. The prepared wells were filled with SDS Running Buffer, samples were loaded into the wells, and 80 volts were applied to the gel until the dye front reached the bottom of the stacking gel. The voltage was then increased to 250 volts until electrophoresis was complete. Radioactive bands in the gel corresponding to phosphorylated KinA and Spo0F were imaged and quantitated with a phosphoimager.
# If either enzyme was inhibited (as evidenced by the absence of labelled protein in the developed gel), an IC50 was calculated by running the assay with a range of inhibitor concentrations from 1 to 500 μM. After electrophoresis of the reaction mixtures, percent inhibition was determined by measuring the concentration of radioactive phosphorus with a phosphoimager and calculating the values using a software program (BioRad Molecular Analyst).
row,SMILES,IC50
1,N=C(N)c1ccc2nc(-c3ccc(-c4ccccc4)cc3)[nH]c2c1 [Example 2],86
2,N=C(N)c1ccc2nc(-c3ccc(C(F)(F)F)cc3)[nH]c2c1 [Example 3],169
3,N=C(N)c1ccc2nc(-c3ccc(N(c4ccccc4)c4ccccc4)cc3)[nH]c2c1 [Example 5],17.4
4,N=C(N)c1ccc2nc(-c3cc(OCc4ccccc4)cc(OCc4ccccc4)c3)[nH]c2c1 [Example 6],15.9
5,N=C(N)c1ccc2nc(-c3cc(C(F)(F)F)cc(C(F)(F)F)c3)[nH]c2c1 [Example 7],30.8
6,CCC(C)(C)c1ccc(-c2nc3ccc(C(=N)N)cc3[nH]2)cc1 [Example 8],37.6
7,CC(C)(C)c1cc(-c2nc3ccc(C(=N)N)cc3[nH]2)cc(C(C)(C)C)c1O [Example 9],75.9
8,CC(C)(C)c1ccc(-c2nc3ccc(C(=N)N)cc3[nH]2)cc1 [Example 10],70.6
9,N=C(N)c1ccc2nc(-c3ccc(OCc4ccc([N+](=O)[O-])cc4)cc3)[nH]c2c1 [Example 11],19.4
10,CCCCCCCCCCOc1ccc(-c2nc3ccc(C(=N)N)cc3[nH]2)cc1OCCCCCCCCCC [Example 12],8.3
11,N=C(N)c1ccc2nc(-c3ccc(C=Cc4ccccc4)cc3)[nH]c2c1 [Example 13],21.5
12,CCCCN(CCCC)c1ccc(-c2nc3ccc(C(=N)N)cc3[nH]2)cc1 [Example 14],35.5
13,N=C(N)c1ccc2nc(-c3ccc(OCc4ccccc4)cc3)[nH]c2c1 [Example 15],60.8
14,N=C(N)c1ccc2nc(-c3ccc(OCc4ccccc4)c(OCc4ccccc4)c3)[nH]c2c1 [Example 16],50.7
15,N=C(N)c1ccc2nc(-c3ccc(F)cc3)[nH]c2c1 [Example 17],480
16,N=C(N)c1ccc2nc(-c3cc(I)c(O)c(I)c3)[nH]c2c1 [Example 18],254

row,SMILES,IC50
1,N=C(N)c1ccc2nc(-c3cc(Cl)cc(Cl)c3)[nH]c2c1 [Example 19],100
2,CC(C)(C)c1cc(-c2nc3ccc(C(=N)N)cc3[nH]2)cc(C(C)(C)C)c1 [Example 20],19
3,N=C(N)c1ccc2nc(-c3cc(-c4ccccc4)cc(-c4ccccc4)c3)[nH]c2c1 [Example 21],31
4,N=C(N)c1ccc2nc(-c3ccc(NCc4ccccc4)cc3)[nH]c2c1 [Example 22],222
5,CC(C)(C)c1cc(-c2nc3ccc(C(=N)N)cc3[nH]2)ccc1O [Example 23],22
6,N#CCCN(CCC#N)c1ccc(-c2nc3ccc(C(=N)N)cc3[nH]2)cc1 [Example 25],35.6
7,N=C(N)c1ccc2nc(-c3ccc(N(Cc4ccccc4)Cc4ccccc4)cc3)[nH]c2c1 [Example 26],17
8,COc1cc(OC)c(-c2nc3ccc(C(=N)N)cc3[nH]2)cc1Br [Example 28],66
9,CC(C)(C)c1cc(-c2nc3ccc(C(=N)N)cc3[nH]2)c(O)c(C(C)(C)C)c1 [Example 30],8.5
10,N=C(N)c1ccc2nc(-c3cc(I)cc(I)c3O)[nH]c2c1 [Example 31],30.8
11,N=C(N)c1ccc2nc(-c3cc(Br)cc(Br)c3O)[nH]c2c1 [Example 32],51.1
12,N=C(N)c1ccc2nc(-c3cc([N+](=O)[O-])cc([N+](=O)[O-])c3O)[nH]c2c1 [Example 33],74.7
13,CC(C)(C)c1cccc(-c2nc3ccc(C(=N)N)cc3[nH]2)c1O [Example 34],4
14,CCN(CC)c1ccc(-c2nc3ccc(C(=N)N)cc3[nH]2)c(O)c1 [Example 38],51
15,N=C(N)c1ccc2nc(-c3ccc(Oc4c([N+](=O)[O-])cc(C(F)(F)F)cc4[N+](=O)[O-])cc3)[nH]c2c1 [Example 45],28

# Further lines, results first:
row,IC50,SMILES
1,155,N=C(N)c1ccc2nc(-c3cc(Cl)cc(Cl)c3O)[nH]c2c1 [Example 36]
2,171,COc1cc(Br)c(O)c(-c2nc3ccc(C(=N)N)cc3[nH]2)c1 [Example 37]
3,23,N=C(N)c1ccc2nc(-c3cc(-c4ccccc4)cc(-c4ccccc4)c3O)[nH]c2c1 [Example 39]
4,199,N=C(N)c1ccc2nc(-c3cc([N+](=O)[O-])cc(Br)c3O)[nH]c2c1 [Example 40]
5,199,CC(C)(C)c1cc(-c2nc3ccc(C(=N)N)cc3[nH]2)c(OCC(=O)O)c(C(C)(C)C)c1 [Example 42]
6,40.2,CC(C)(C)c1csc(-c2ccc(-c3nc4ccc(C(=N)N)cc4[nH]3)cc2)n1 [Example 43]

# Same assay, conditions: Table 1, KinA/Spo0F phosphorylation, read-out: IC50
row,SMILES,IC50
1,CC(C)c1ccc(-c2nc3ccc(C(=N)N)cc3[nH]2)cc1 [Example 4],219 µM
2,N=C(N)c1ccc2nc(-c3ccccc3O)[nH]c2c1 [Example 27],465 µM
3,COc1c(-c2nc3ccc(C(=N)N)cc3[nH]2)cc(C(C)(C)C)cc1C(C)(C)C [Example 29],76 µM
4,CC(C)(C)c1ccc(O)c(-c2nc3ccc(C(=N)N)cc3[nH]2)c1 [Example 35],64 µM

# Same assay, conditions: Table 2, KinA/Spo0F phosphorylation, in µM
row,IC50,SMILES
1,44,Cn1c(-c2ccc(Oc3ccccc3)cc2)nc2ccc(C(=N)N)cc21 [Example 46]
2,131,N=C(N)c1ccc(Oc2ccc(-c3nc4ccc(C(=N)N)cc4[nH]3)cc2)cc1 [Example 47]
3,29.2,N=C(N)c1ccc2nc(-c3ccc(Oc4ccc(Cl)cc4[N+](=O)[O-])cc3)[nH]c2c1 [Example 49]
4,31.7,N=C(N)c1ccc2nc(-c3ccc(Oc4ccc([N+](=O)[O-])cc4)cc3)[nH]c2c1 [Example 50]
5,140.6,N=C(N)c1ccc2nc(-c3ccc(Oc4ccc(N)cc4)cc3)[nH]c2c1 [Example 51]
6,56,CCOC(=O)c1ccc(Oc2ccc(-c3nc4ccc(C(=N)N)cc4[nH]3)cc2)cc1 [Example 52]
7,28.7,COc1cc(Oc2ccc(-c3nc4ccc(C(=N)N)cc4[nH]3)cc2)cc(OC)c1OC [Example 53]
8,17.7,COc1ccc(Oc2ccc(-c3nc4ccc(C(=N)N)cc4[nH]3)cc2)cc1 [Example 54]
9,59.2,COc1cc(OC)cc(Oc2ccc(-c3nc4ccc(C(=N)N)cc4[nH]3)cc2)c1 [Example 55]
10,66.5,CC(C)(C)c1ccc(Oc2ccc(-c3nc4ccc(C(=N)N)cc4[nH]3)cc2)cc1 [Example 56]
11,31.5,N=C(N)c1ccc2[nH]c(-c3ccc(Oc4ccc(N)c(N)c4)cc3)nc2c1 [Example 58]
12,13.9,N=C(N)c1ccc2[nH]c(-c3ccc(Oc4ccc(Cl)cc4)cc3)nc2c1 [Example 59]

row,SMILES,IC50
1,N=C(N)c1ccc2nc(-c3ccc(Oc4ccc([N+](=O)[O-])c([N+](=O)[O-])c4)cc3)[nH]c2c1 [Example 57],31.6

# Same assay, conditions: Table 2, KinA/Spo0F phosphorylation, read-out: IC50
row,SMILES,IC50
1,N=C(N)c1ccc2nc(-c3ccc(Oc4ccccc4)cc3)[nH]c2c1 [Example 48],42 µM
